Assay results reported in patent publication US20240418626A1, “METHOD, DEVICE, AND SYSTEM FOR CELL IDENTIFICATION” (Ruixin (Fuzhou) Technology Co., Ltd., priority 2021, published 2024).

Tests used:
Format in all cases: cell-based
A549 cells [1] = assay: Cell vitality by MTT assay in A549 cells treated with 5-FU
Description: (§1) Specifically, in the present embodiment, non-small cell lung cancer A549 cells are cultured on multiple cellular traction force detection devices, and then are treated with various doses of cell proliferation inhibitor 5-fluorouracil (5-FU). Subsequently, the cellular traction forces at different time are monitored by using the cellular identification system described in the twentieth embodiment. Cell proliferation and cytotoxicity are monitored using the CCK-8 kit, with cell vitality measured by the MTT assay serving as a control group, yielding the data for FIGS. 11B and 11C.

A549 cells [2] = assay: Cell vitality reflected by cellular traction force in A549 cells treated with 5-FU; conditions: for time of significant decrease in cellular traction force: FIG. 11C
Description: as §1

[3] = tested on: Breast cancer cells MCF-7 tumor cell aggregates; assay: 5-Fu drug sensitivity of tumor cell aggregates on the cellular traction force detection device; conditions: MCF-7 aggregates, 200 μM, cultured for one day, FIGS. 13A and 13B
Description: S1, Generation of tumor cell aggregates: FN 50 μg/mL is coated on the top of the micro-/nano-pillars of the cellular traction force detection device and sterilized with UV light for 30 minutes. Breast cancer cells MCF-7 (approximately 1×10^5 to 9×10^5 cells) are seeded on the surface of the micro-/nano-pillars of the cellular traction force detection device (number of micro-/nano-pillars not limited) and then cultured in 3dGRO™ Spheroid Medium (S3077) for more than three days to guide the formation of tumor cell aggregates.
S2, Applying the generated tumor cell aggregates to 5-Fu drug sensitivity experiments: 200 μM of 5-Fu is added to the tumor cell aggregates and cultured for one day. In the experiment, cellular traction force detection devices with tumor cell aggregates (along with the culture medium) before and after the addition of 5-Fu are monitored using the information acquisition unit (CCD sensor) within the cellular identification device to capture light reflection signals.

[4] = various doses of 5-FU, FIGS. 11B and 11C

For `O=c1[nH]cc(F)c(=O)[nH]1` [5-FU, 5-fluorouracil], the “changes in cell vitality measured by the MTT assay” value (A549 cells [1]; after 12 hours of treatment, FIG. 11C) was “not noticeable”, the “cell vitality measured by the traditional MTT assay” value (A549 cells [1]; [4]) was “dose-dependent decrease” and the “time of significant decrease in cellular traction force” value (A549 cells [2]; 0.5 μM treatment dose) was 6 h. The “time of significant decrease in cellular traction force” value (A549 cells [2]; 1 μM treatment dose) was 3 h, the “cellular vitality as reflected by traction forces compared to control group DMSO” value (A549 cells [2]; different doses, treatment for 24 hours, FIG. 11B) was “decreases more significantly” and the “cell vitality reflected by cellular traction forces” value (A549 cells [2]; [4]) was “dose-dependent decrease”. For the same compound, the “reflection signals of tumor cell aggregates after treatment” value [3] was “significantly weaken”.
